In US20170119806A1, “[…] LACTONE DERIVATIVES AND METHODS OF MAKING AND USING THEREOF” (OHIO STATE INNOVATION FOUNDATION, priority 2014, published 2017):
“Also recorded” adds a separate entry of the source.

What was measured:
[1] = test system: primary NK cells cocultured with ARH-77 target cells; test: NK cell cytotoxicity assay (51Cr release); format: cell-based, human; conditions: 10 μM PL-C 8 h, then 4 h coculture, with IL-12 or IL-15; listed as PL-C
Protocol: (A) Human […] were treated with DMSO vehicle control or 10 μM PL-C for 18 hours in the presence of IL-12 (10 ng/mL) or IL-15 (100 ng/mL), as described in FIG. 37C. The cells were harvested for intracellular flow cytometry to determine the frequency of IFN-γ^+ cells in CD56^−CD3^+[…] or CD56^−CD3^+CD8^+T. Representative data from 1 out of 5 donors are shown. (B) Purified primary NK cells were treated with IL-12 (10 ng/mL) or IL-15 (100 ng/mL) with or without 10 μM PL-C for 8 hours and were sequentially co-cultured with […] labeled ARH-77 cells at various effector/target cell ratios for additional 4 hours. ^51Cr release was measured by a TopCount counter. Data shown are the means of 3 donors. […] Error bars represent S.D. (C) Purified primary NK cells were treated with 10 μM PL-C in the presence of IL-12 (10 ng/mL) (top) or IL-15 (100 ng/mL) (bottom) for 12 hours, and cell pellets were harvested for detecting granzyme A (GZMA), granzyme B (GZMB), perforin (PRF1) and Fas (Fasl) mRNA expression level by real-time RT-PCR. Data shown are the means of 6 donors. p>0.05, vehicle control versus PL-C in all panels. Error bars represent S.D.
Cytotoxicity assay. Cytotoxicity assay was performed as described previously (Yu J et al. Immunity 2006, 24, 575-590; Yu J et al. Blood 2010, 115, 274-281). […] The release of ^51Cr was counted on a TopCount counter (Canberra Packard, Meriden, Conn.). […]

[2] = test system: NF-κB p65; test: Immunoblotting of p65 and p-p65 in NK cells; format: cell-based, human; conditions: 5 and 10 μM PL-C, 18 h
Protocol: (A) Purified primary human NK cells were treated with 5 and 10 μM PL-C for 18 h. The cells were harvested and lysed for immunoblotting using p65 and p-p65 Abs. β-Actin immunoblotting was included as the internal control. Data shown are for treatment with PL-C alone (top panel) or in combination with IL-12 (10 ng/mL) (middle panel) or IL-15 (100 ng/mL) (bottom panel) and are the representative plots of four donors with similar results. Numbers under each lane represent quantification of p-p65 or p65 via densitometry, after normalizing to β-actin. (B) NKL cells were treated, and data are presented as described in (A). Data from one of three independent experiments with similar results are shown. (C) Purified primary human NK (left panel) or NKL cells (right panel) were cotreated with 10 μM PL-C and IL-12 (10 ng/mL) in the presence or absence of the NF-κB inhibitor TPCK (10 μM) for 18 h. Supernatants were assayed for IFN-γ secretion by ELISA (top panel), and cells were harvested and lysed for immunoblotting of p-p65 (bottom panel). Representative data from one of three donors with the similar data (left panel) and the summary of three independent experiments with similar results (right panel) are shown. **p<0.01. Error bars represent SD.
Immunoblotting. Immunoblotting was performed as described previously (Yu J et al. Immunity 2006, 24, 575-590; Yu J et al. Blood 2010, 115, 274-281). […]

[3] = test system: CCD-112CoN normal human colon cells; test: Cytotoxicity against CCD-112CoN cells
Excerpt: Following a previous procedure (Still P C et al. J. Nat. Prod. 2013, 76, 243-249) and the method for screening cytotoxicity towards HT-29 cells mentioned above, the cytotoxicity of the samples was screened against CCD-112CoN normal human colon cells.

[4] = test system: TLR1 or TLR6; test: TLR activation assessment (NF-κB luciferase reporter in HEK293T); format: cell-based, human; conditions: various concentrations of PL-C, 24 h
[5] = test system: HT-29 human colon cancer cells
Protocol: The cytotoxicity of the test compounds was screened against HT-29 cells by a previously reported procedure (Ren Y et al. J. Nat. Prod 2011, 74, 1117-1125). Paclitaxel and etoposide were used as positive controls.
All arylnaphthalene lignans isolated from P. poilanet in the present study and their semi-synthetic analogues were evaluated for their cytotoxicity against HT-29 human colon cancer cells, using paclitaxel as the positive control (Table 6) (Ren Y et al. J. Nat. Prod 2011, 74, 1117-1125).

COc1cc2c(OC3OCC(O)C(O)C3O)c3c(c(-c4ccc5c(c4)OCO5)c2cc1OC)C(=O)OC3 (stereo not drawn) [Compound 4, Phyllanthusmin C]
NK cell cytotoxicity [1]: no statistically significant difference; also recorded: little or no; also recorded: did not activate NK cell cytotoxicity; also recorded: limited effect on NK cytotoxicity
NF-κB p65 phosphorylation in primary NK and NKL cells [2]: increased
cytotoxicity toward CCD-112CoN human normal colon cells (in words) [3]: non-cytotoxic
IC50 ([3]; read-out: IC50 values toward the CCD-112 CoN cells, Table 6): > 100 µM
NF-κB luciferase reporter activity in TLR1- or TLR6-transfected 293T cells [4]: induce luciferase reporter activity in a dose-dependent fashion
cytotoxicity toward HT-29 cells (in words) [5]: cytotoxic
